From ChEMBL document CHEMBL5370527, “Hit-to-lead optimization of a pyrazinylpiperazine series against Leishmania infantum and Leishmania braziliensis” (Eur J Med Chem, 2023)

Experiments:
Leishmania infantum = assay: Antileishmanial activity against […] stage of Leishmania infantum MHOM/BR/1974/PP75 infected in human THP-1 cells assessed as parasite growth inhibition incubated for 72 hrs by microplate reader analysis; type: functional, organism-based; conditions: MHOM/BR/1974/PP75, THP-1, 72 h
Trypanosoma cruzi = assay: Antitrypanosomal activity against Trypanosoma cruzi Tulahuen infected in mouse L929 cells assessed as parasite growth inhibition incubated for 96 hrs; type: functional, organism-based; conditions: L929, 96 h
[1] = Selectivity index, ratio of CC50 for cytotoxicity against human THP-1 cells assessed as reduction in cell viability to IC50 for antileishmanial activity against […] stage of Leishmania infantum MHOM/BR/1974/PP75 infected in human THP-1 cells assessed as parasite growth inhibition; type: toxicity, cell-based; conditions: read-out: Ratio CC50/IC50
[2] = Cytotoxicity against human THP-1 cells assessed as reduction in cell viability incubated for 72 hrs by alamarblue staining based analysis; type: toxicity
Leishmania braziliensis = assay: Antileishmanial activity against […] stage of Leishmania braziliensis MHOM/BR/75/M2904 infected in human THP-1 cells assessed as parasite growth inhibition incubated for 72 hrs by microplate reader analysis; type: functional, organism-based; conditions: MHOM/BR/75/M2904, THP-1, 72 h
[3] = Selectivity index, ratio of CC50 for cytotoxicity against human THP-1 cells assessed as reduction in cell viability to IC50 for antileishmanial activity against […] stage of Leishmania braziliensis MHOM/BR/75/M2904 infected in human THP-1 cells assessed as parasite growth inhibition; type: toxicity, cell-based; conditions: read-out: Ratio CC50/IC50
Leishmania donovani [4] = assay: Antileishmanial activity against amastigote form of Leishmania donovani infected in HepG2 cells assessed as inhibition of parasite growth incubated for 72 hrs by Alamar blue staining based assay; type: functional, organism-based; conditions: HepG2, 72 h
[5] = Cytotoxicity against human HepG2 cells assessed as reduction in cell viability incubated for 4 days by celltiter-glo assay; type: toxicity, cell-based; conditions: time 4 day
Leishmania donovani [6] = assay: Inhibition of Leishmania donovani at 10 uM GSK-3 by kinase glo assay relative to control

Row | IC50 (Trypanosoma cruzi) | inhibition (Leishmania donovani [6]) | SMILES | IC50 (Leishmania infantum) | selectivity ratio [1] | CC50 at 72 h [2] | IC50 (Leishmania braziliensis) | selectivity ratio [3] | IC50 (Leishmania donovani [4]) | CC50 at 96 h [5]
1 | > 175 µM | – | O=C(c1ccccc1O)N1CCN(c2cnccn2)CC1 | 58.8 µM | 45 | 2620 µM | 85.2 µM | 31 | – | –
2 | – | – | COc1ccc(C(=O)N2CCN(c3cnccn3)CC2)c(OC)c1 | 26.4 µM | 18 | 482 µM | 30.6 µM | 16 | – | –
3 | – | – | O=S(=O)(c1ccc(O)cc1)N1CCN(c2cnccn2)CC1 | 157 µM | 16 | 2510 µM | 113 µM | 22 | – | –
4 | – | – | COc1cccc(C(=O)N2CCN(c3cnccn3)CC2)c1OC | 112 µM | 18 | 2000 µM | 82.1 µM | 24 | – | –
5 | > 175 µM | – | O=C(c1ccc(C(F)(F)F)nc1)N1CCN(c2cnccn2)CC1 | 35.2 µM | 298 | 10500 µM | 32.1 µM | 327 | – | –
6 | – | – | O=C(c1ccc(O)c(O)c1)N1CCN(c2cnccn2)CC1 | 3.5 µM | 407 | 1420 µM | 9.4 µM | 151 | – | –
7 | > 175 µM | – | COc1ccc(C(=O)N2CCN(c3cnccn3)CC2)cc1 | 4.5 µM | 422 | 1900 µM | 10.1 µM | 188 | – | –
8 | > 175 µM | – | O=C(c1cccc(O)c1)N1CCN(c2cnccn2)CC1 | 25.3 µM | 87 | 2200 µM | 14.1 µM | 156 | – | –
9 | > 175 µM | – | O=C(c1cccc(C(F)(F)F)n1)N1CCN(c2cnccn2)CC1 | 7430 µM | 0.2 | 1700 µM | 3540 µM | 0.5 | – | –
10 | – | – | O=C(c1ccc(Cl)nc1)N1CCN(c2cnccn2)CC1 | 1.9 µM | 184 | 349 µM | 10.1 µM | 35 | – | –
11 | – | – | CC(C)(C)OC(=O)N[C@@H](Cc1ccc(O)cc1)C(=O)N1CCN(c2cnccn2)CC1 | 2.9 µM | 349 | 1010 µM | 9.4 µM | 108 | – | –
12 | – | – | O=C(c1cc(Cl)ccc1O)N1CCN(c2cnccn2)CC1 | 10.8 µM | 149 | 1600 µM | 4.5 µM | 357 | – | –
13 | – | – | N#Cc1ccc(C(=O)N2CCN(c3cnccn3)CC2)cc1 | 15.9 µM | 81 | 1290 µM | 22.7 µM | 57 | – | –
14 | – | – | COc1ccc(C(=O)N2CCN(c3cnccn3)CC2)cc1OC | 55.3 µM | 13 | 721 µM | 33.6 µM | 21 | – | –
15 | – | – | COc1ccc(C(=O)N2CCN(c3cnccn3)CC2)cn1 | 6.2 µM | 231 | 1430 µM | 17.5 µM | 82 | – | –
16 | – | – | O=C(/C=C/c1ccc(O)c(O)c1)N1CCN(c2cnccn2)CC1 | 105 µM | > 29 | > 3060 µM | 74.6 µM | > 41 | – | –
17 | > 175 µM | – | O=C(c1ccc(OC(F)(F)F)cc1)N1CCN(c2cnccn2)CC1 | 7.5 µM | 115 | 865 µM | 17.5 µM | 49 | – | –
18 | – | – | O=C(c1ccc(N2CCCC2)nc1)N1CCN(c2cnccn2)CC1 | 5.3 µM | 53 | 280 µM | 5.9 µM | 48 | – | –
19 | > 175 µM | – | O=C(c1ccc(O)cc1)N1CCN(c2cnccn2)CC1 | 3.1 µM | 346 | 1070 µM | 7.6 µM | 141 | – | –
20 | > 175 µM | – | O=C(c1ccc(-n2cnnn2)cc1)N1CCN(c2cnccn2)CC1 | 5.8 µM | 449 | 2610 µM | 8.9 µM | 293 | – | –
21 | – | – | Nc1ccc(C(=O)N2CCN(c3cnccn3)CC2)cn1 | 5.1 µM | 524 | 2670 µM | 11.9 µM | 224 | – | –

Row | IC50 (Trypanosoma cruzi) | inhibition (Leishmania donovani [6]) | SMILES | IC50 (Leishmania infantum) | selectivity ratio [1] | CC50 at 72 h [2] | IC50 (Leishmania braziliensis) | selectivity ratio [3] | IC50 (Leishmania donovani [4]) | CC50 at 96 h [5]
22 | – | – | O=C(c1cccnc1)N1CCN(c2cnccn2)CC1 | 142 µM | > 26 | > 3710 µM | 132 µM | > 28 | – | –
23 | > 175 µM | – | O=C(c1cccc(Cl)c1)N1CCN(c2cnccn2)CC1 | 113 µM | 6 | 662 µM | 93.4 µM | 7 | – | –
24 | – | – | O=C(c1ccc(O)nc1)N1CCN(c2cnccn2)CC1 | 176 µM | 1460 | > 3500 µM | 184 µM | > 19 | – | –
25 | > 175 µM | – | O=C(c1ccc(C(F)(F)F)cc1)N1CCN(c2cnccn2)CC1 | 84.5 µM | 5 | 421 µM | 55.7 µM | 8 | – | –
26 | > 175 µM | – | O=C(c1ccccc1)N1CCN(c2cnccn2)CC1 | 63.1 µM | 11 | 716 µM | 24.7 µM | 29 | – | –
27 | – | – | O=C(c1ccc2cc(O)ccc2c1)N1CCN(c2cnccn2)CC1 | 3.3 µM | 241 | 796 µM | 2.6 µM | 306 | – | –
28 | – | – | O=C(c1ccc(O)cc1O)N1CCN(c2cnccn2)CC1 | 21.9 µM | 20 | 443 µM | 19.1 µM | 23 | – | –
29 | – | – | O=C(c1cccc(O)c1O)N1CCN(c2cnccn2)CC1 | 2.8 µM | > 1190 | > 3330 µM | 0.2 µM | > 16600 | – | –
30 | – | – | Oc1ccc(N2CCN(c3cnccn3)CC2)cc1 | 43.6 µM | > 89 | > 3900 µM | 27.1 µM | > 144 | – | –
31 | – | – | O=C(N1CCN(c2cnccn2)CC1)n1ccnc1 | 7.3 µM | 438 | 3190 µM | 9.2 µM | 347 | – | –
32 | > 175 µM | – | COc1ccc(Cl)cc1C(=O)N1CCN(c2cnccn2)CC1 | 27.5 µM | – | 1010 µM | 7.8 µM | 130 | – | –
33 | – | – | O=C(c1ccc(O)cn1)N1CCN(c2cnccn2)CC1 | 128 µM | > 27 | > 3500 µM | 94 µM | > 37 | – | –
34 | – | – | COc1ccc(S(=O)(=O)N2CCN(c3cnccn3)CC2)cc1 | 122 µM | > 24 | > 2990 µM | 94.1 µM | > 32 | – | –
35 | > 175 µM | 1.65% | O=C(c1ccc(O)c(Cl)c1)N1CCN(c2cnccn2)CC1 | 11.9 µM | 46 | 542 µM | 11.7 µM | 46 | 0.31 µM | > 100 µM
36 | > 175 µM | – | O=C(c1ccc([N+](=O)[O-])cc1)N1CCN(c2cnccn2)CC1 | 221 µM | 13 | 2810 µM | 161 µM | 17 | – | –
37 | – | – | C[C@@H]1[C@H](O)[C@@H](C)/C=C/C=C/C=C/C=C/C=C/C=C/C=C/[C@H](O[C@@H]2O[C@H](C)[C@@H](O)[C@H](N)[C@@H]2O)C[C@@H]2O[C@](O)(C[C@@H](O)C[C@@H](O)[C@H](O)CC[C@@H](O)C[C@@H](O)CC(=O)O[C@H]1C)C[C@H](O)[C@H]2C(=O)O [AMPHOTERICIN B] | 0.25 µM | 1460 | 364 µM | 0.13 µM | 2800 | – | –
38 | – | – | N[C@@H](Cc1ccc(O)cc1)C(=O)N1CCN(c2cnccn2)CC1 | 3.3 µM | – | 2410 µM | 69.2 µM | 35 | – | –
39 | > 175 µM | – | COc1cc(F)ccc1C(=O)N1CCN(c2cnccn2)CC1 | 34.3 µM | 40 | 1360 µM | 13.1 µM | 104 | – | –
40 | – | – | O=C(c1ccc(NC2CCCC2)nc1)N1CCN(c2cnccn2)CC1 | 280 µM | 3 | 763 µM | 337 µM | 2 | – | –
41 | – | – | O=C(c1ccc(F)cc1O)N1CCN(c2cnccn2)CC1 | 14.2 µM | 80 | 1130 µM | 25.8 µM | 44 | – | –
42 | – | – | O=C(c1ccccn1)N1CCN(c2cnccn2)CC1 | 64.8 µM | 18 | 1130 µM | 34.9 µM | 32 | – | –
